Series [1] in a line: Lipophilicity (log P). The note with it: octanol/water. It is filed as physicochemical.
Series [2] has as its target T1, Aβ1–42 fibrils (Homo sapiens, UniProt P05067).
T1 construct: Commercially available amyloid peptide Aβ1-42; purchased
Put plainly: Saturation binding of [18F]-9 with Aβ1–42 fibrils. Here is the method:
For assessing the ability of [^18F]-9 to bind Aβ plaques; binding assays with either AD homogenates or preformed Aβ1–42 aggregates were performed in 30 mM Tris, pH 7.4 buffer supplemented with 0.1% BSA[39]. Nonspecific binding was determined in the presence of 5 (1 μM) as a competitor.
Scientific Reports Version of August 4, 2016
Binding assays were performed using previously described methods.11 Briefly, a fixed concentration (0.25 µM/well) of Aβ1–42 fibrils was incubated for 1 h at 37 °C with increasing concentrations of [18F]-9 (0.1 nM-15 nM) in 30 mM Tris-HCl pH 7.4, 0.1% BSA in a reaction volume of 150 µl. […] The exact hot:cold ([18F]-9 : 5) ratio was measured in each experiment by counting an aliquot of a sample (2 µl) of the radioligand preparation in a scintillation counter. Binding of [18F]-9 to human brain homogenates was assessed by incubating samples of insoluble fraction (1.25 µg insoluble protein/well) from AD subjects, with increasing concentrations of [18F]-9 (0.1nM-18 nM) for 1 h at 37 °C. Nonspecific binding was determined in parallel experiments in the presence of 5 (1 µM) as a competitor. […] Glass fiber filters containing the bound ligand were mixed with Optiphase Supermix scintillation cocktail (150µl; PerkinElmer) and counted immediately. […]
Bmax values were calculated in pmol/gram wet weight of brain tissue. […]

Series [3] in a line: Human serum stability by radio-HPLC. It is filed as in vitro ADME. The conditions noted are these: 37 °C. An excerpt:
For biomedical imaging applications, the signal is a net function of target/background ratio. In PET imaging, this signal results from detection of γ-photons arising from annihilation events of positrons and imaging resolution is also dependent upon energy associated with a given radionuclide. Resultant radioactive metabolites could also contribute to nonspecific binding or compete with the parental tracer for binding to the target. Therefore, it is also important to investigate metabolic stability of the radiotracer to explicitly confirm whether or not biochemical targeting profiles of a given tracer are driven by a parental molecular imaging probe. […]
Binding assays were performed using previously described methods.11 Briefly, a fixed concentration (0.25 µM/well) of Aβ1–42 fibrils was incubated for 1 h at 37 °C with increasing concentrations of [18F]-9 (0.1 nM-15 nM) in 30 mM Tris-HCl pH 7.4, 0.1% BSA in a reaction volume of 150 µl. […] The exact hot:cold ([18F]-9 : 5) ratio was measured in each experiment by counting an aliquot of a sample (2 µl) of the radioligand preparation in a scintillation counter. Binding of [18F]-9 to human brain homogenates was assessed by incubating samples of insoluble fraction (1.25 µg insoluble protein/well) from AD subjects, with increasing concentrations of [18F]-9 (0.1nM-18 nM) for 1 h at 37 °C. […]

The target of series [4] is Aβ plaques (Homo sapiens, UniProt P05067). Put plainly: Real time multiphoton imaging in APP+/−/PS1+/− mice. It is filed as in vivo. The note with it: 2 mg/kg intravenous. An excerpt: For assessing viability of molecules as imaging probes in vivo[48], various imaging modalities, such as nuclear imaging (PET/SPECT), optical imaging, and MRI have been used to investigate simultaneously distribution kinetics and target-receptor specificity. While the resolution of PET and MRI allow in vivo imaging at relatively moderate resolution, the multiphoton microscopy enables evaluation of kinetics at a sub-micrometer resolution[49]. […] The generation of various transgenic (tg) animals overexpressing mutant human APP and/or PS1 and PS2, tg APP mice expressing ApoE isoforms including those for Tau offer attractive models for unravelling biochemical pathways prevalent in pathophysiology of AD[50]. […] Literature precedents indicate Aβ deposition by 2 months of age, with gradual quantitative increase at six months^55. […] Compared with barely detectable auto-fluorescence levels prior to imaging transgenic APP^+/−/PS1^+/− mice (Fig. 8, first panel), bright fluorescence appeared almost instantaneously following administration of 5. Fluorescence first appeared in large and small blood vessels within the brain. Within minutes (10 min), the brain parenchyma was uniformly bright in fluorescence, and Aβ deposits were labeled. […]
Chain of Aβ plaques (P05067 672-711 limits assumed): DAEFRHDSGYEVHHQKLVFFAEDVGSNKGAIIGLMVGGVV
For imaging 5 labeled plaques, two-photon fluorescence was generated with 800 nm excitation, and fluorescent emission was detected in the range of 435-485nm. […]

T1 sequence (P05067 672-713 limits assumed): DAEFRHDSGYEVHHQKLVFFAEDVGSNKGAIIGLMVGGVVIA

On to `CN(C)c1ncc(/C=C\c2nc3cc(OCC[18F])ccc3[se]2)cn1` [[^18F]-9], for which the logP in series [1] was 1.28. The Bmax in series [2] came out at 1.3 pmol/nmol. Further, the Kd in series [2] (30 mM Tris pH 7.4, 0.1% BSA, one-site model) amounted to 1.6 nM. The “presence of parental tracer (single radio-peak) in human serum” value in series [3] is “up to 3 h”; in series [3] (listed as 18F-9), 3 h.

Turning to `CN(C)c1ncc(/C=C\c2nc3cc(OCCF)ccc3[se]2)cn1` [compound 5, (Z)-5-(2-(5-(2-fluoroethoxy)benzo[d][1,3]selenazol-2-yl)vinyl)-N,N-dimethylpyrimidin-2-amine], the “time at which labeling of parenchymal plaques peaked” value in series [4] was “approximately 10 min”.

What is called logP is the decadic logarithm of the partition coefficient of the neutral form, usually between octanol and water. Read a low logP as a more hydrophilic compound. By Kd is commonly meant a measure of binding affinity in units of concentration.

The values above are taken from paper PMC5090206, “Fluselenamyl: A Novel Benzoselenazole Derivative for PET Detection of Amyloid Plaques (Aβ) in Alzheimer’s Disease” (Scientific Reports, 2016).
